Test results from paper PMC6219668 (Oncotarget, 2018).

Columns and labels:
[1] = system: A2058; assay: cells; type: cell-based; settings: Homo sapiens, A2058, 72 h
[2] = system: Rb phosphorylation; assay: animal or person; type: in vivo; settings: Rattus norvegicus, JeKo-1, read-out: ppRb inhibition, range
[3] = system: HPAX0991; type: in vivo; settings: HPAX0991, Pancreatic, Rb present; 250 mg/kg qd
[4] = system: NCI-H2228; assay: cells; type: cell-based; settings: Homo sapiens, NCI-H2228, 72 h
[5] = system: TE-5; assay: cells; type: cell-based; settings: Homo sapiens, TE-5, 72 h
[6] = system: TE-8; assay: cells; type: cell-based; settings: Homo sapiens, TE-8, 72 h
[7] = molecular target: T1, CDK4 (Homo sapiens, UniProt P11802); assay: KINOMEscan binding assay; settings: Supplementary Table 1A
T1 construct: purchased DiscoveRx (KINOMEscan)

[8] = system: KYSE150; assay: cells; type: cell-based; settings: Homo sapiens, KYSE-150; KYSE150, 72 h
[9] = system: NCI-H2030; assay: cells; type: cell-based; settings: Homo sapiens, NCI-H2030, 72 h
[10] = system: HPAX1633; type: in vivo; settings: HPAX1633, Pancreatic, Rb present; 250 mg/kg qd
[11] = system: MGH051; assay: cells; type: cell-based; settings: MGH051, 72 h
[12] = system: CHP-212; assay: cells; type: cell-based; settings: Homo sapiens, CHP-212, 72 h
[13] = type: in vivo
[14] = system: HCC-827; assay: cells; type: cell-based; settings: Homo sapiens, HCC827; HCC-827, 72 h
[15] = system: HBCx-2; type: in vivo; settings: HBCx-2, Breast, TNBC, Rb absent; 125 mg/kg bid × 21
[16] = system: NCI-H1573; assay: cells; type: cell-based; settings: Homo sapiens, NCI-H1573, 72 h
[17] = system: SK-N-SH; assay: cells; type: cell-based; settings: Homo sapiens, 72 h
[18] = system: JeKo-1; assay: cells; type: cell-based; settings: Homo sapiens; JeKo-1, MCL, dominant CDK4; read-out: IC50, mean ± SD

T1 sequence (P11802 whole entry): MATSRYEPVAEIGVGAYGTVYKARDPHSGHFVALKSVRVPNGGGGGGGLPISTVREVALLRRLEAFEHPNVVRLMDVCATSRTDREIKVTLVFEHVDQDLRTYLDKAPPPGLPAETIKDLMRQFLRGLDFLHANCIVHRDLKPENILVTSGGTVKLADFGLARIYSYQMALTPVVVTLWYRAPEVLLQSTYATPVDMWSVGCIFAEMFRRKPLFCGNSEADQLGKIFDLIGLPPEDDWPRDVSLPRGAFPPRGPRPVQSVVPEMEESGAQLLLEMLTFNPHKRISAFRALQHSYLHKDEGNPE

Row | SMILES | IC50 [1] | inhibition at 75 mg/kg [2] | inhibition at 150 mg/kg [2] | T/C [3] | IC50 [4] | IC50 [5] | IC50 [6] | affinity for CDK4, lower than that observed for abemaciclib [7] | IC50 [8] | IC50 [9] | T/C [10] | IC50 [11] | IC50 [12] | body weight loss ([13]; 150 mg/kg) | tolerability ([13]; all ribociclib doses, no significant body weight loss) | IC50 [14] | T/C [15] | IC50 [16] | IC50 [17] | IC50 [18]
1 | CN(C)C(=O)c1cc2cnc(Nc3ccc(N4CCNCC4)cn3)nc2n1C1CCCC1 [Ribociclib, 7-cyclopentyl-2-(5-piperazin-1-yl-pyridin-2-ylamino)-7H-pyrrolo[2,3-d]pyrimidine-6-carboxylic acid dimethylamide] | > 10 µM | 75 to 90% | 97 to 100% | 11 | > 10 µM | 2.39 µM | 2.44 µM | ~10 fold | 0.55 µM | 8.33 µM | 30 | > 10 µM | 0.3 µM | only minimal transient body weight loss | well tolerated | 6.12 µM | 102 | > 10 µM | 0.27 µM | –
2 | CC(=O)c1c(C)c2cnc(Nc3ccc(N4CCNCC4)cn3)nc2n(C2CCCC2)c1=O [Palbociclib, reference compound] | – | – | – | – | – | – | – | – | – | – | – | – | – | – | – | – | – | – | – | 72 ± 33 µM
